Test results from ChEMBL document CHEMBL1146245, “Antitumor agents. 258. Syntheses and evaluation of dietary antioxidant--taxoid conjugates as novel cytotoxic agents” (2007).
≈ marks a conversion by molar mass, not a printed value. Calls of active or inactive are those of the source. The calls are words filed in the database; no cut-off is given here.

Assays:
Type in all cases: functional
1A9 = assay: Cytotoxicity against human 1A9 cells by sulforhodamine B assay; conditions: for EC50: read-out: ED50 (the source's name)
KB = assay: Cytotoxicity against human KB cells by sulforhodamine B assay; conditions: for EC50: read-out: ED50 (the source's name)
A549 = assay: Cytotoxicity against human A549 cells; conditions: for EC50: read-out: ED50 (the source's name)
HCT-8 = assay: Cytotoxicity against human HCT8 cells
A-431 = assay: Cytotoxicity against human A431 cells; conditions: for EC50: read-out: ED50 (the source's name)
[1] = Cytotoxicity against MDR human KB-VIN cells expressing P-glycoprotein; conditions: for EC50: KBVIN, read-out: ED50 (the source's name)

Molecule: COc1cc(/C=C/C(=O)CC(=O)/C=C/c2ccc(O)c(OC)c2)ccc1O [CURCUMIN]
- Activity (1A9): inactive
- Activity (KB): inactive
- Activity (A549): inactive
- Activity (HCT-8): inactive
- EC50 (A-431): 0.75 µg/mL (≈ 2.04 µM)
- Activity [1]: inactive

Molecule: CC(=O)O[C@H]1C(=O)[C@@]2(C)[C@H]([C@H](OCc3ccccc3)[C@]3(O)C[C@H](OC(=O)[C@H](OC(=O)CCC(=O)Oc4c(C)c(C)c5c(c4C)OC(C)(CCC[C@@H](C)CCC[C@@H](C)CCCC(C)C)CC5)[C@@H](NCc4ccccc4)c4ccccc4)C(C)=C1C3(C)C)[C@]1(OC(C)=O)CO[C@@H]1C[C@@H]2O (some centres not stated)
- Activity (1A9): inactive
- Activity (KB): inactive
- Activity (A549): inactive
- Activity (HCT-8): inactive
- EC50 (A-431): 0.1 µg/mL (≈ 0.0747 µM)
- Activity [1]: inactive

Molecule: CC(=O)O[C@H]1C(=O)[C@@]2(C)[C@H]([C@H](OC(=O)c3ccccc3)[C@]3(O)C[C@H](OC(=O)[C@H](O)[C@@H](NC(=O)c4ccccc4)c4ccccc4)C(C)=C1C3(C)C)[C@]1(OC(C)=O)CO[C@@H]1C[C@@H]2O [PACLITAXEL]
- EC50 (1A9): 0.001 µg/mL (≈ 0.00117 µM)
- EC50 (KB): 0.002 µg/mL (≈ 0.00234 µM)
- EC50 (A549): 0.02 µg/mL (≈ 0.0234 µM)
- EC50 (HCT-8; read-out: ED50 (the source's name)): 0.06 µg/mL (≈ 0.0703 µM)
- EC50 (A-431): 0.01 µg/mL (≈ 0.0117 µM)
- EC50 [1]: 0.2 µg/mL (≈ 0.234 µM)

Molecule: CC(=O)O[C@H]1C(=O)[C@]2(C)[C@@H](OC(=O)CCN3CCCCC3)C[C@H]3OC[C@@]3(OC(C)=O)[C@H]2[C@H](OCc2ccccc2)[C@]2(O)C[C@H](OC(=O)[C@H](OC(=O)CCC(=O)Oc3c(C)c(C)c4c(c3C)OC(C)(CCC[C@@H](C)CCC[C@@H](C)CCCC(C)C)CC4)[C@@H](NCc3ccccc3)c3ccccc3)C(C)=C1C2(C)C (some centres not stated)
- Activity (1A9): inactive
- Activity (KB): inactive
- Activity (A549): inactive
- Activity (HCT-8): inactive
- Activity (A-431): inactive
- Activity [1]: inactive

Molecule: CCN(CC)CCC(=O)O[C@H]1C[C@H]2OC[C@@]2(OC(C)=O)[C@H]2[C@H](OCc3ccccc3)[C@]3(O)C[C@H](OC(=O)[C@H](OC(=O)CCC(=O)Oc4c(C)c(C)c5c(c4C)OC(C)(CCC[C@@H](C)CCC[C@@H](C)CCCC(C)C)CC5)[C@@H](NCc4ccccc4)c4ccccc4)C(C)=C([C@@H](OC(C)=O)C(=O)[C@]12C)C3(C)C (stereo in doubt; 27a)
- Activity (1A9): inactive
- Activity (KB): inactive
- Activity (A549): inactive
- Activity (HCT-8): inactive
- Activity (A-431): inactive
- Activity [1]: inactive

Molecule: COc1cc(/C=C/C(=O)CC(=O)/C=C/c2ccc(OC(=O)CCC(=O)O[C@@H](C(=O)O[C@H]3C[C@@]4(O)[C@@H](OCc5ccccc5)[C@@H]5[C@]6(OC(C)=O)CO[C@@H]6C[C@H](O)[C@@]5(C)C(=O)[C@H](OC(C)=O)C(=C3C)C4(C)C)[C@@H](NCc3ccccc3)c3ccccc3)c(OC)c2)ccc1O
- EC50 (1A9): 0.03 µg/mL (≈ 0.0235 µM)
- EC50 (KB): 0.01 µg/mL (≈ 0.00783 µM)
- EC50 (A549): 0.03 µg/mL (≈ 0.0235 µM)
- Activity (HCT-8): inactive
- EC50 (A-431): 0.03 µg/mL (≈ 0.0235 µM)
- EC50 [1]: 0.2 µg/mL (≈ 0.157 µM)

Molecule: VITAMIN E
- Activity (1A9): inactive
- Activity (KB): inactive
- Activity (A549): inactive
- Activity (HCT-8): inactive
- ED50 (A-431): 0.75 µg/mL
- Activity [1]: inactive
